Assay [1] has as its target T1, recombinant F508del V470 CFTR in Fischer rat thyroid (FRT) cells (Homo sapiens, UniProt P13569, DEL508-508).
T1 construct: expressed in transfected cells
The experiment in a line: FRT ion flux assay of F508del CFTR potentiation. The assay is classed as cell-based. The following applies: FRT cells expressing F508del V470 CFTR, forskolin 20 uM, 27° C. pre-incubation. The method, boiled down:
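FRT cells co-expressing F508del V470 CFTR and halide-sensitive YFP, temperature-corrected at 27° C for 16-24 h, then treated 30 min with compound plus 20 uM forskolin. Iodide addition quenches YFP, read after ~21 s; ratio scaled to DMSO (0%) and positive control potentiator (100%).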

Assay [2] concerns the target T2, CFTR in F508del/F508del primary CF hBE cells (Homo sapiens, UniProt P13569, DEL508-508).
T2 construct: Primary cystic fibrosis human bronchial epithelial (CF hBE) cells were expanded and cultured; endogenous in cells; host or cells: primary CF human bronchial epithelial cells, genotype F508del/F508del
As to the kind of experiment: Ussing chamber electrophysiology assay of CFTR potentiation in F508del/F508del CF bronchial epithelial cells (27° C.). The assay is classed as cell-based. The method, boiled down:
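Well-differentiated primary CF hBE cells (>30 days air/liquid interface) in Ussing chambers, HEPES saline both sides, voltage clamped to zero. Amiloride 30 uM, forskolin 10 uM, four rising compound concentrations, then CFTRinh-172 20 uM added at 20-25 min intervals. Short-circuit current scaled to DMSO (0%) and a positive control potentiator maximum (100%).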

A value given as a limit tells only on which side of the number the result lay.

T1 sequence (P13569 with tags, fused parts or gaps DEL508-508): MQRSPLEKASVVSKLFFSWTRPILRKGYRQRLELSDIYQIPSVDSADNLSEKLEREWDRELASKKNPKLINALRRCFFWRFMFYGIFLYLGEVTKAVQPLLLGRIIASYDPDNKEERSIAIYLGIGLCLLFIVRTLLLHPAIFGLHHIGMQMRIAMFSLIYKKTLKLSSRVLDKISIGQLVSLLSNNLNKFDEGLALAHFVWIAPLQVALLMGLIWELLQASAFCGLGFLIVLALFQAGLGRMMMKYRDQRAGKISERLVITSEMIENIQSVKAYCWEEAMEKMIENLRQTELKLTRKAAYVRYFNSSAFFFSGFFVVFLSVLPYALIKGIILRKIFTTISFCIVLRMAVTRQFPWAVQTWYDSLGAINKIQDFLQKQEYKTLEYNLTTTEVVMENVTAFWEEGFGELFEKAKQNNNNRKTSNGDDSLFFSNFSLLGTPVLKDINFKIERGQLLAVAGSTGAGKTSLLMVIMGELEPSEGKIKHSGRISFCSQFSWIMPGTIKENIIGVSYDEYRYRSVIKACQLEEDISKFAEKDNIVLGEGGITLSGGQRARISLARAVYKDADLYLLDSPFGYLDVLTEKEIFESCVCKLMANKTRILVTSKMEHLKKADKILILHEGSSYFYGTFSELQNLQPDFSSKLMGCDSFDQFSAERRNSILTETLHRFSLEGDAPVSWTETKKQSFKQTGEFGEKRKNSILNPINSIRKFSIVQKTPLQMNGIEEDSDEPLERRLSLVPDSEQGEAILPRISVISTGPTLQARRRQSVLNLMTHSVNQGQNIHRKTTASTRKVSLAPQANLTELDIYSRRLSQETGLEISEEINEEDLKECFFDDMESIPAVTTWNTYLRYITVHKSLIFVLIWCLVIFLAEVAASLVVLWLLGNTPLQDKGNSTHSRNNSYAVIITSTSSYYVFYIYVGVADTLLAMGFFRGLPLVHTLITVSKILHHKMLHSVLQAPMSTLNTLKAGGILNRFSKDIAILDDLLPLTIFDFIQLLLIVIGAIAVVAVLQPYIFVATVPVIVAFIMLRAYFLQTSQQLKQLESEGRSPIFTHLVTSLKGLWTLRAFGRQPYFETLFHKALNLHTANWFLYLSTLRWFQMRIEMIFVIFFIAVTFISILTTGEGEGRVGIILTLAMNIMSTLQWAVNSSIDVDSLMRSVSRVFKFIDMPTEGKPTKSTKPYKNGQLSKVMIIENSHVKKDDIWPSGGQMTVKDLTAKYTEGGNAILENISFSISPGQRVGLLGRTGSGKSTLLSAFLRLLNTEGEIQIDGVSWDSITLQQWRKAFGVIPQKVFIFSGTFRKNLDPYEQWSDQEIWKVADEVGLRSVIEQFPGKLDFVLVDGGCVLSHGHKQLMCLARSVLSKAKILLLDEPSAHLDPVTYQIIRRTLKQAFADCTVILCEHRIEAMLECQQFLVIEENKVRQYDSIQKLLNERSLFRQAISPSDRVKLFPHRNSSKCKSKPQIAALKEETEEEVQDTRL
T2 sequence (P13569 with tags, fused parts or gaps DEL508-508): as above

For orientation: EC50 means the concentration giving half of the maximal effect. For `Nc1ncnc2c1c(-c1cccc3ncoc13)cn2Cc1cn(-c2ccccc2F)nn1` [Example 299, 5-(1,3-Benzoxazol-7-yl)-7-{[1-(2-fluorophenyl)-1H-1,2,3-triazol-4-yl]methyl}-7H-pyrrolo[2,3-d]pyrimidin-4-amine], the values for the EC50 in assay [1] and in assay [2] were 235 nM and 273 nM, respectively.
For `CCC(c1cn(-c2ccc(F)cc2F)nn1)n1cc(-c2cnc(OC)c(F)c2)c2c(N)ncnc21` (single isomer, unassigned; enantiomer 1) [Example 165, 7-{1-[1-(2,4-Difluorophenyl)-1H-1,2,3-triazol-4-yl]propyl}-5-(5-fluoro-6-methoxypyridin-3-yl)-7H-pyrrolo[2,3-d]pyrimidin-4-amine, enantiomer 1], in that order: 728 nM and 247 nM.
For `COc1nc(C)ccc1-c1cn(Cc2cn(-c3ccccc3F)nn2)c2ncnc(N)c12` [Example 194, 7-{[1-(2-Fluorophenyl)-1H-1,2,3-triazol-4-yl]methyl}-5-(2-methoxy-6-methylpyridin-3-yl)-7H-pyrrolo[2,3-d]pyrimidin-4-amine], in that order: 28.6 nM and 12.2 nM.
For `Nc1ncnc2c1c(C1CCCO1)cn2Cc1cn(-c2ccccc2F)nn1` (centres unmarked) [Example 198, 7-{[1-(2-Fluorophenyl)-1H-1,2,3-triazol-4-yl]methyl}-5-(tetrahydrofuran-2-yl)-7H-pyrrolo[2,3-d]pyrimidin-4-amine], in that order: greater than 25000 nM and 2120 nM.
Consider `CC(c1cnn(-c2ccccc2F)c1)n1c(C#N)c(-c2cnc(C(F)(F)F)nc2)c2c(N)ncnc21` (single isomer, unassigned) [Example 5, 4-Amino-7-(1-(1-(2-fluorophenyl)-1H-pyrazol-4-yl)ethyl)-5-(2-(trifluoromethyl)pyrimidin-5-yl)-7H-pyrrolo[2,3-d] pyrimidine-6-carbonitrile], for which the EC50 in assay [1] is 7.69 nM; in assay [2] it was 7.73 nM.
For `CSc1ccc(-c2cn(C(C)c3cn(-c4ccccc4F)nn3)c3ncnc(N)c23)cc1` (centres unmarked) [Example 88, 7-{1-[1-(2-Fluorophenyl)-1H-1,2,3-triazol-4-yl]ethyl}-5-[4-(methylsulfanyl)phenyl]-7H-pyrrolo[2,3-d]pyrimidin-4-amine], in that order: 41.3 nM and 38.2 nM.
For `CCC(c1cn(-c2ccccc2F)nn1)n1cc(-c2nccnc2OC)c2c(N)ncnc21` (single isomer, unassigned; enantiomer 2) [Example 136, (+) 7-{1-[1-(2-Fluorophenyl)-1H-1,2,3-triazol-4-yl]propyl}-5-(3-methoxypyrazin-2-yl)-7H-pyrrolo[2,3-d]pyrimidin-4-amine, enantiomer 2], in that order: 15.3 nM and 3.46 nM.
For `CC(c1cn(-c2ccccc2F)nn1)n1cc(C2CC2)c2c(N)ncnc21` (centres unmarked) [Example 238, 5-Cyclopropyl-7-{1-[1-(2-fluorophenyl)-1H-1,2,3-triazol-4-yl]ethyl}-7H-pyrrolo[2,3-d]pyrimidin-4-amine], in that order: 60.6 nM and 133 nM.
For `CC(c1cnc(-c2ccccc2F)[nH]1)n1cc(-c2ccc(-n3nccn3)cc2)c2c(N)ncnc21` (centres unmarked) [Example 70, 7-{1-[2-(2-Fluorophenyl)-1H-imidazol-5-yl]ethyl}-5-[4-(2H-1,2,3-triazol-2-yl)phenyl]-7H-pyrrolo[2,3-d]pyrimidin-4-amine], the EC50 amounted to 110 nM in assay [1] and 30.6 nM in assay [2].
In the case of `Nc1ncnc2c1c(-c1ccc(OC(F)F)cc1)cn2Cc1cn(-c2ccccc2F)nn1` [Example 83, 5-[4-(Difluoromethoxy)phenyl]-7-{[1-(2-fluorophenyl)-1H-1,2,3-triazol-4-yl]methyl}-7H-pyrrolo[2,3-d]pyrimidin-4-amine], the 50% effective concentration (EC50) was found to be 71.9 nM in assay [1] and 39.8 nM in assay [2].
For `CCC(c1cn(-c2ccccc2F)nn1)n1cc(-c2cnc(C(F)(F)F)nc2)c2c(N)ncnc21` (single isomer, unassigned; enantiomer 2) [Example 138, 7-{1-[1-(2-Fluorophenyl)-1H-1,2,3-triazol-4-yl]propyl}-5-[2-(trifluoromethyl)pyrimidin-5-yl]-7H-pyrrolo[2,3-d]pyrimidin-4-amine, enantiomer 2], in that order: 266 nM and 261 nM.
With `CC(c1cn(-c2ccccc2F)nn1)n1cc(C2CCC2)c2c(N)ncnc21` (centres unmarked) [Example 247, 5-Cyclobutyl-7-{1-[1-(2-fluorophenyl)-1H-1,2,3-triazol-4-yl]ethyl}-7H-pyrrolo[2,3-d]pyrimidin-4-amine], the results for the EC50 in assay [1] and in assay [2] were 16.2 nM and 12.4 nM, respectively.
On to `Cc1c(C(C)n2cc(-c3cnc(C(F)(F)F)nc3)c3c(N)ncnc32)nnn1-c1ccccc1F` (single isomer, unassigned; enantiomer 1) [Example 179, 7-{1-[1-(2-Fluorophenyl)-5-methyl-1H-1,2,3-triazol-4-yl]ethyl}-5-[2-(trifluoromethyl)pyrimidin-5-yl]-7H-pyrrolo[2,3-d]pyrimidin-4-amine, enantiomer 1], for which the EC50 in assay [1] came to 9.97 nM; in assay [2], 23.1 nM.
For the molecule `Nc1ncnc2c1c(-c1ccc(Cl)cc1)cn2Cc1cnc(-c2ccccc2F)[nH]1` [Example 263, 5-(4-Chlorophenyl)-7-{[2-(2-fluorophenyl)-1H-imidazol-5-yl]methyl}-7H-pyrrolo[2,3-d]pyrimidin-4-amine], the EC50 in assay [1] was determined as 199 nM; in assay [2] it was 21.6 nM.
For `CCOc1ccc(-c2cn(Cc3cn(-c4ccccc4F)nn3)c3ncnc(N)c23)cc1F` [Example 75, 5-(4-Ethoxy-3-fluorophenyl)-7-{[1-(2-fluorophenyl)-1H-1,2,3-triazol-4-yl]methyl}-7H-pyrrolo[2,3-d]pyrimidin-4-amine], in that order: 99.6 nM and 38 nM.
Take `COc1ccc(-c2cn(C(C)c3cnc(-c4ccccc4F)[nH]3)c3ncnc(N)c23)c(F)c1` (centres unmarked) [Example 59, 5-(2-Fluoro-4-methoxyphenyl)-7-{1-[2-(2-fluorophenyl)-1H-imidazol-5-yl]ethyl}-7H-pyrrolo[2,3-d]pyrimidin-4-amine]: the EC50 in assay [1] is 195 nM; in assay [2], 32 nM.
For `CCC(c1cn(-c2cc(F)ccc2F)nn1)n1cc(-c2cncnc2OC)c2c(N)ncnc21` (single isomer, unassigned; enantiomer 2) [Example 308, (−) 7-{1-[1-(2,5-Difluorophenyl)-1H-1,2,3-triazol-4-yl]propyl}-5-(4-methoxypyrimidin-5-yl)-7H-pyrrolo[2,3-d]pyrimidin-4-amine, enantiomer 2], in that order: 362 nM and 430 nM.
Take `CCC(c1cn(-c2ccccc2F)nn1)n1cc(-c2cnc(C(F)(F)F)nc2)c2c(N)ncnc21` (centres unmarked) [Example 224, 7-{1-[1-(2-Fluorophenyl)-1H-1,2,3-triazol-4-yl]propyl}-5-[2-(trifluoromethyl)pyrimidin-5-yl]-7H-pyrrolo[2,3-d] pyrimidin-4-amine]: the EC50 was found to be 9.04 nM in assay [1] and 19 nM in assay [2].
For `Cn1ncc2cc(-c3cn(Cc4cn(-c5ccccc5F)nn4)c4ncnc(N)c34)ccc21` [Example 86, 7-{[1-(2-Fluorophenyl)-1H-1,2,3-triazol-4-yl]methyl}-5-(1-methyl-1H-indazol-5-yl)-7H-pyrrolo[2,3-d]pyrimidin-4-amine], in that order: 539 nM and 659 nM.
For `CC(c1cn(-c2ncccc2F)nn1)n1cc(-c2ccc(Cl)cc2)c2c(N)ncnc21` (centres unmarked) [Example 287, 5-(4-Chlorophenyl)-7-{1-[1-(3-fluoropyridin-2-yl)-1H-1,2,3-triazol-4-yl]ethyl}-7H-pyrrolo[2,3-d]pyrimidin-4-amine], in that order: 112 nM and 254 nM.
For `Nc1ncnc2c1c(C1CC1)cn2C1(c2cn(-c3ccccc3F)nn2)CC1` [Example 295, 5-Cyclopropyl-7-{1-[1-(2-fluorophenyl)-1H-1,2,3-triazol-4-yl]cyclopropyl}-7H-pyrrolo[2,3-d]pyrimidin-4-amine], in that order: 185 nM and 389 nM.
Regarding `CNc1ncnc2c1c(-c1ccc(Cl)cc1)cn2C(C)c1cn(-c2ccccc2F)nn1` (centres unmarked) [Example 318, 5-(4-Chlorophenyl)-7-{1-[1-(2-fluorophenyl)-1H-1,2,3-triazol-4-yl]ethyl}-N-methyl-7H-pyrrolo[2,3-d]pyrimidin-4-amine], the EC50 in assay [1] turned out to be 2990 nM; in assay [2], 397 nM.
For `Nc1ncnc2c1c(-c1ccc(Cl)cc1)cn2Cc1ncc(-c2ccccc2F)[nH]1` [Example 285, 5-(4-Chlorophenyl)-7-{[5-(2-fluorophenyl)-1H-imidazol-2-yl]methyl}-7H-pyrrolo[2,3-d]pyrimidin-4-amine], in that order: 3690 nM and 3500 nM.
For `CCC(c1cn(-c2ccc(F)cc2)nn1)n1cc(-c2cncnc2OC)c2c(N)ncnc21` (single isomer, unassigned; enantiomer 2) [Example 150, (−) 7-{1-[1-(4-Fluorophenyl)-1H-1,2,3-triazol-4yl]propyl}-5-(4-methoxypyrimidin-5-yl)-7H-pyrrolo[2,3-d]pyrimidin-4-amine, enantiomer 2], in that order: 298 nM and 926 nM.
As to `Nc1ncnc2c1c(-c1ncco1)cn2Cc1cn(-c2ccccc2F)nn1` [Example 301, 7-{[1-(2-Fluorophenyl)-1H-1,2,3-triazol-4-yl]methyl}-5-(1,3-oxazol-2-yl)-7H-pyrrolo[2,3-d]pyrimidin-4-amine], the EC50 in assay [1] is 360 nM; in assay [2], 461 nM.
